Results from patent EP4620956A1, “PARP1 INHIBITORS” (Zhejiang Yangli Pharmaceutical Technology Co., Ltd., priority 2022, dated 2024).

How the values were obtained:
MDA-MB-436 = experiment: Anti-proliferative activity (CellTiter-Glo, 7 days), MDA-MB-436; type: cell-based, human; settings: for IC50: Homo sapiens, MDA-MB-436, 168 h, BRCA1-mutated, 7 days, read-out: MDA-MB-436 IC50
DLD-1 BRCA2^-/- = experiment: Anti-proliferative activity (CellTiter-Glo, 7 days), DLD-1 BRCA2-/-; type: cell-based, human; settings: for IC50: Homo sapiens, DLD-1, 168 h, BRCA2-mutated, 7 days
DLD-1 WT = experiment: Anti-proliferative activity (CellTiter-Glo, 7 days), DLD-1 WT; type: cell-based, human; settings: for IC50: Homo sapiens, DLD-1, 168 h, BRCA2-normal, 7 days
Experimental: The anti-proliferation experiment of the compounds on tumour cells adopted the most widely used ATP concentration-based detection method at present. MDA-MB-231 and MDA-MB-436 cell lines were obtained from ATCC, DLD-1 human colourectal adenocarcinoma epithelial cells and DLD-1 BRCA2^-/- cells were obtained from Horizon, and the cells were revived. After the cells were stable, the cells were collected. When the viable cell count exceeded 90%, 450-500 cells were seeded into a 384-well plate. The next day, the example compounds with serially diluted concentrations were added. Only buffer was added to the Max well, and 50 µM AZD2281 was added to the Min well. The plate was incubated for 7 days, and on the eighth day, CellTiter-Glo® reagent (Promega, G7573) was added. The plate was incubated at room temperature for 30 minutes, and the values were read on Envision (PE). The inhibition rate was calculated using the fluorescence values from the Max and Min wells, and the dose-response curve was fitted using the analysis software GraphPad Prism 5 to obtain the IC50 value of each compound for the enzyme activity.

A549 WT = experiment: Cellular PARylation inhibition, high-content imaging, A549 WT; type: cell-based; settings: Homo sapiens, PARylation at the cellular level
Experimental: The inhibitory effect of the compounds on PARP1/PARP2 enzyme activity at the cellular level was detected using high-content imaging. A549 WT, PARP1-KO and PARP2-KO cell lines were established in-house, and the cells were revived. After the cells were stable, a sufficient number of cells were collected and 100 µL of the cell suspension was seeded into a 96-well plate. The next day, the example compounds with serially diluted concentrations were added. […] The plate was incubated for 1.5 hours (A549 WT and PARP2-KO cell lines) or 2 hours (PARP1-KO cell line). After removing the supernatant, 0.4 mM H2O2 was added and incubation was carried out for 10 minutes (A549 WT and PARP2-KO cell lines) or 1.5 mM H2O2 was added and incubation was carried out for 15 minutes (PARP1-KO cell line) to induce extensive cellular DNA damage. After removing the supernatant, the cells were fixed with 4% paraformaldehyde for 20 minutes, followed by treatment with 0.5% Triton X-100 for 20 minutes to increase the permeability of the cell membrane. After that, the cells were incubated with 3% BSA for 1 hour to prevent non-specific binding. […] The cell nuclei were stained for 30 minutes by adding 50 µL DAPI (invitrogen, R37606). After washing twice with PBS, images were acquired on OPERETTA CLS™ (PE) by scanning the cells under a 20x water objective lens in non-confocal mode, with 5 fields of view captured per well. […] The inhibition rate was calculated using the fluorescence values from the Max and Min wells, and the dose-response curve was fitted using the analysis software GraphPad Prism 5 to obtain the IC50 value of each compound for the enzyme activity.

PARP6 = molecular target: T1, PARP6 (Homo sapiens, UniProt Q2NL67); experiment: Inhibition of PARP6 enzyme activity (chemiluminescence); type: biochemical
T1 construct: purchased BPS 80506
T1 sequence (Q2NL67 whole entry): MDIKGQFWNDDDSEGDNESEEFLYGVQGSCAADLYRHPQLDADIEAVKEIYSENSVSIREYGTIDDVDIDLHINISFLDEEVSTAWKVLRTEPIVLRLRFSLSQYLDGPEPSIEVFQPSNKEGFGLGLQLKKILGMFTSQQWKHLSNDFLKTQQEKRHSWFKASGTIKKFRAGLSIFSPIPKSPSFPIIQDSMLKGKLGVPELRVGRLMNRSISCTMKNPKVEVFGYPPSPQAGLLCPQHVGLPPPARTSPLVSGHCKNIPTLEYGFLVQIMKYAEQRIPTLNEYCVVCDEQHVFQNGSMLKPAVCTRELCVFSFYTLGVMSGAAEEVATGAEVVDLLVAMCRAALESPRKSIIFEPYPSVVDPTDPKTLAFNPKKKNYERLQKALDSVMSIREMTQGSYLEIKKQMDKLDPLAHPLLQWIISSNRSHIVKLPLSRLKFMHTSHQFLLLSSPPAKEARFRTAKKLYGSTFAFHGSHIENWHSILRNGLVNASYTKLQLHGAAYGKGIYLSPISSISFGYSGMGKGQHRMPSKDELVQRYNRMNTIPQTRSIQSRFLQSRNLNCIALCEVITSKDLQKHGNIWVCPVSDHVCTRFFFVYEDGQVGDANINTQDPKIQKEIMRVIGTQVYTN

PARP11 = molecular target: T2, PARP11 (Homo sapiens, UniProt Q9NR21); experiment: Inhibition of PARP11 enzyme activity (chemiluminescent assay kit); type: biochemical
T2 construct: purchased BPS 80511
T2 sequence (Q9NR21 1-338): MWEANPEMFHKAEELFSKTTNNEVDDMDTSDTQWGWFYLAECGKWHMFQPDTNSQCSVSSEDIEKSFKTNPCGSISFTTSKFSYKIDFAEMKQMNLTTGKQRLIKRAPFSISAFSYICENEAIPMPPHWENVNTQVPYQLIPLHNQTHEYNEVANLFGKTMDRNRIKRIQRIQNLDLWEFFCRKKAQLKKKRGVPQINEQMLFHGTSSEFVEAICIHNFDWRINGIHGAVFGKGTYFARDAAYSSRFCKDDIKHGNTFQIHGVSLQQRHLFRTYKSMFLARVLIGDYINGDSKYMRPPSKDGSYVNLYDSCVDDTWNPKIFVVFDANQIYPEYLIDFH

MDA-MB-231 = experiment: Anti-proliferative activity (CellTiter-Glo, 7 days), MDA-MB-231; type: cell-based, human; settings: for IC50: Homo sapiens, MDA-MB-231, 168 h, BRCA1-normal, 7 days, read-out: MDA-MB-231 IC50
[1] = test system: MDA-MB-436 xenograft tumour; experiment: Anti-tumour effect in MDA-MB-436 subcutaneous xenograft tumour mouse model; type: in vivo; settings: same dose, MDA-MB-436 xenograft mice
Experimental: Example 4 was further verified in vivo. A subcutaneous xenograft tumour mouse model of the BRCA1-mutated MDA-MB-436 cell line was selected. Human breast cancer MDA-MB-436 cells (ATCC, HTB-130) were cultured in vitro in a monolayer, with the culture conditions of L-15 medium supplemented with 10% foetal bovine serum, 1% penicillin-streptomycin solution, and 0.01 mg/mL bovine insulin, and cultured at 37°C in a CO2-free incubator. The cells were routinely digested and passaged twice a week using trypsin-EDTA. When the cell confluency reached 80%-90%, the cells were harvested and counted, and 0.2 mL of 1 × 10^7 MDA-MB-436 cells were subcutaneously inoculated on the right back of each mouse (PBS : Matrigel = 1 : 1). When the mean tumour volume reached 152 mm^3, the mice were grouped for drug administration. The day of drug administration was set as Day 0. The tumour volume and the body weight of the mice were monitored twice a week, and the drug treatment lasted for 28 days.
The diameter of the tumour was measured with a vernier calliper. The tumour volume is calculated according to the following equation: V = 0.5a × b^2, where a and b represent the long and short diameters of the tumour, respectively. The tumour inhibition effect of the compound was evaluated by relative tumour shrinkage rate Reg%. Reg% reflects the rate of tumour volume reduction after treatment. Reg% = (V0-Vt)/V0×100%, where V0 is the tumour volume measured at the time of grouping for drug administration (i.e., d0), and Vt is the tumour volume measured at a certain time point.
The criteria for compound response in the mouse model were adapted from mRECIST (Modified Response Evaluation Criteria in Solid Tumours) (Gao et al, 2015), and are specifically defined as follows: [formula] • PR (Partial Response): BestResponse < −50% and BestAvgResponse < −20%; [formula] • SD (Stable Disease): BestResponse < 35% and BestAvgResponse < 30%; [formula] • PD (Progressive Disease): other cases; • ORR% is the sum of the proportions of Complete Response (CR) and Partial Response (PR).
Statistical analysis was performed using Prism software, including the mean value (Mean) and standard error of the mean (SEM) of the tumour volume at each time point for each group. For the statistical analysis of TV, the original TV data from each measurement were used to compare the differences between groups. Two-way ANOVA was applied to include the two factors, i.e., drug administration and time for analysis, followed by the Tukey's multiple comparisons test, wherein p < 0.05 was considered statistically significant.

PARP1 [2] = molecular target: T3, PARP1 (Homo sapiens, UniProt P09874); experiment: DNA trapping capability of PARP1 (HTRF); type: biochemical
T3 construct: purchased BPS 80501
T3 sequence (P09874 whole entry): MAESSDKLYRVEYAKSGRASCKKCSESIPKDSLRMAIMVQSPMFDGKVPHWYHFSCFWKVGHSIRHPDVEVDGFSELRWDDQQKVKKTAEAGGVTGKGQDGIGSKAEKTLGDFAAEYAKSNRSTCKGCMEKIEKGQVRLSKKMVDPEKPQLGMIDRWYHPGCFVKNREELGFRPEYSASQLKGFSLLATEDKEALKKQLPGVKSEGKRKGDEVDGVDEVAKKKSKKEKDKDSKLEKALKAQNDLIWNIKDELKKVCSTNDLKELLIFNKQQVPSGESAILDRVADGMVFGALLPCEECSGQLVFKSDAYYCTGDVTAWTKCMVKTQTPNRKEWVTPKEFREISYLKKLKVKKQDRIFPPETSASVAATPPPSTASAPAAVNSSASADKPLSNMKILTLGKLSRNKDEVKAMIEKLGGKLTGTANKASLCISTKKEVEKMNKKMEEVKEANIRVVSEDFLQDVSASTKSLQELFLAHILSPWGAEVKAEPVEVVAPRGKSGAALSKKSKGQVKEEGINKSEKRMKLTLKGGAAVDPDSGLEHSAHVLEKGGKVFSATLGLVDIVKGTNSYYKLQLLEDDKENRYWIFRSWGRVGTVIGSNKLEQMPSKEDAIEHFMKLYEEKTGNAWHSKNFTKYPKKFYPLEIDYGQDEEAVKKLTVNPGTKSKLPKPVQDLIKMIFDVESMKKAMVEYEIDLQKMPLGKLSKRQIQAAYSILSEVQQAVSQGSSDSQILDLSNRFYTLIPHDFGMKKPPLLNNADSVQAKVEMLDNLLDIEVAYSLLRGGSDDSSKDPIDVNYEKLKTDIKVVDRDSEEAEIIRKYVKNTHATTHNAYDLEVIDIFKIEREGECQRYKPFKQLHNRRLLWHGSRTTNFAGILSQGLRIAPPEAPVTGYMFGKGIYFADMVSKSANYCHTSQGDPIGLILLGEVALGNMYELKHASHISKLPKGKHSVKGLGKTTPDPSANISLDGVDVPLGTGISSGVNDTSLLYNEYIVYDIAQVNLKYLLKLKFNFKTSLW

[3] = Pharmacokinetic study of single administration in mice; type: in vivo; settings: CD-1 mice
Experimental: Male CD-1 mice were used as test animals. The plasma drug concentrations of the compounds were determined and the pharmacokinetic parameters were evaluated after a single administration. Healthy adult male CD-1 mice were selected. The candidate compound was added to 10% DMSO, vortexed and sonicated. After complete dissolution, 30% PEG400 was added, followed by vortexing and sonication, and 60% double-distilled water was added to prepare a clear solution for later use. After the mice were intravenously injected at a dose of 2 mg/kg and orally administered at a dose of 10 mg/kg, whole blood was collected at 5 minutes, 15 minutes, 30 minutes, 1 hour, 2 hours, 4 hours, 8 hours, and 24 hours after administration to prepare plasma. After sample treatment, the drug concentration was analysed by LC-MS/MS method, and the pharmacokinetic parameters were calculated.

PARP1 [4] = molecular target: T3, PARP1; experiment: Inhibition of PARP1 enzyme activity (chemiluminescence); type: biochemical
A549 PARP2-KO cell line = experiment: Cellular PARylation inhibition, high-content imaging, PARP2-KO; type: cell-based
PARP2 [5] = molecular target: T4, PARP2 (Homo sapiens, UniProt Q9UGN5); experiment: DNA trapping capability of PARP2 (HTRF); type: biochemical
T4 construct: purchased BPS 80502
T4 sequence (Q9UGN5 whole entry): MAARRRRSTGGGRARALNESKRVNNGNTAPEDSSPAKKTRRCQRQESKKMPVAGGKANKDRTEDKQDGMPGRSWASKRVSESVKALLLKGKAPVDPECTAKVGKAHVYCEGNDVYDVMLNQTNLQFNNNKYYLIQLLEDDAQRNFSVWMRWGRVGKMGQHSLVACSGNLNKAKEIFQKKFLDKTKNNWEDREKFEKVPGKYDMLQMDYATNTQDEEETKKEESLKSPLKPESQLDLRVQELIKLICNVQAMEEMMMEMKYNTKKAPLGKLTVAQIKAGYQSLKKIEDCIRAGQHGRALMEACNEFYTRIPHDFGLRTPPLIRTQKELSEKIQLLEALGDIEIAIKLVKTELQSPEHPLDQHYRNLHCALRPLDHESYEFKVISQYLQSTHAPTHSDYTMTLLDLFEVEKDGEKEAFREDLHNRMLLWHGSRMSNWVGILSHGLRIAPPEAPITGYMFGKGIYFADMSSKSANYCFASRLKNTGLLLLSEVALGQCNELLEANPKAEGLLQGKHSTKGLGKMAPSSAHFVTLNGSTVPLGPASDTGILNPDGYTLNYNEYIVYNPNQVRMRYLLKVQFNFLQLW

PARP2 [6] = molecular target: T4, PARP2; experiment: Inhibition of PARP2 enzyme activity (chemiluminescence); type: biochemical
A549 PARP1-KO cell lines = experiment: Cellular PARylation inhibition, high-content imaging, PARP1-KO; type: cell-based; settings: Homo sapiens, A549; PARylation at the cellular level
[7] = ratio relative to the PARP1 enzyme activity
[8] = male, mouse, plasma, IV, 2 mg/kg
[9] = male, mouse, plasma, PO, 10 mg/kg

SMILES: CCc1cc2ncc(CN3CCN(c4ccc(C(=O)NC)nc4)CC3)cc2[nH]c1=O [AZD5305, reference compound]
- IC50 (MDA-MB-436): 1.94 nM
- IC50 (DLD-1 BRCA2^-/-): 2.12 nM
- IC50 (DLD-1 WT): > 10000 nM
- IC50 (A549 WT): 2.2 nM
- IC50 (PARP6; enzyme activity): 8660 nM
- PARP6 multiple vs PARP1 (PARP6; [7]): 20,619
- IC50 (PARP11; enzyme activity): 19.4 nM
- PARP11 multiple vs PARP1 (PARP11; [7]): 46
- IC50 (MDA-MB-231): > 10000 nM
- tumour regression ([1]; FIG. 3): promoted tumour regression
- ORR ([1]; treatment 28 days): 20%

SMILES: CCc1c(N)c2ncc(CN3CCN(c4ccc(C(=O)NC)nc4)CC3)cc2[nH]c1=O [Example 1, 5-(4-((8-Amino-7-ethyl-6-oxo-5,6-dihydro-1,5-naphthyridin-3-yl)methyl)piperazin-1-yl)-N-methylpicolinamide]
- IC50 (MDA-MB-436): 16.4 nM
- BRCA1 mutation/WT selectivity fold (MDA-MB-436; MDA-MB-231 vs MDA-MB-436): >608 fold
- EC50 (PARP1 [2]): 1.78 nM
- Exposure inf ([3]; IV, 2 mg/kg): 38.222 µg·h/mL
- Exposure last ([3]; IV, 2 mg/kg): 38.128 µg·h/mL
- Exposure inf ([3]; PO, 10 mg/kg): 191.246 µg·h/mL
- Exposure last ([3]; PO, 10 mg/kg): 189.56 µg·h/mL
- Peak concentration ([3]; PO, 10 mg/kg): 15700 ng/mL
- Time to peak ([3]; PO, 10 mg/kg): 2 h
- clearance [3, 8]: 0.872 mL/min/kg
- half-life [3, 8]: 2.81 h
- Vd ([3]; male, mouse, plasma, IV, 2 mg/kg, read-out: Apparent volume of distribution): 0.218 L/kg
- bioavailability [3, 9]: 100%
- half-life [3, 9]: 3.51 h
- IC50 (PARP1 [4]): 0.49 nM
- PARP1/2 selectivity fold (PARP1 [4]; PARP2 vs PARP1): 108 fold
- BRCA2 mutation/WT selectivity fold (DLD-1 BRCA2^-/-; DLD-1 WT vs DLD-1 BRCA2^-/-): >538 fold
- IC50 (DLD-1 BRCA2^-/-): 18.6 nM
- IC50 (A549 PARP2-KO cell line; Homo sapiens, A549, read-out: PARP2-KO IC50): 72.2 nM
- PARP1 KO/PARP2 KO selectivity fold (A549 PARP2-KO cell line; PARylation at the cellular level): 660 fold
- EC50 (PARP2 [5]): 168 nM
- inhibition on cell proliferation at the highest concentration (DLD-1 WT; BRCA2-normal DLD-1 cell line, 10 µM): no detectable inhibition
- IC50 (DLD-1 WT): > 10000 nM
- IC50 (A549 WT): 14.4 nM
- IC50 (PARP2 [6]): 52.8 nM
- inhibition on cell proliferation at the highest concentration (MDA-MB-231; BRCA1-normal MDA-MB-231 cell line, 10 µM): no detectable inhibition
- IC50 (MDA-MB-231): > 10000 nM
- IC50 (A549 PARP1-KO cell lines): 47700 nM
